From patent US10351594B2, “Process for preparing compounds having triple activities of thrombolysis, antithrombosis, and radical scavenging” (Shanghai Lumosa Therapeutics Co., Ltd., priority 2013, dated 2019)
Marks after values point to notes of the source that are not given here.

Experiments:
[1] = tested on: formation of thrombus (rat arteriovenous bypass); test: Antithrombotic activity via intravenous administration, rat arteriovenous bypass cannula with thread; type: in vivo, male SD rats; conditions: n = 10
From the text: A cannula was composed of 3 segments. The middle segment has a length of 80 mm and an inner diameter of 3.5 mm. […] The pre-weighed, 60 mm in length thread was placed in the middle segment of the polyethylene tube. Both ends of the wider tube sheathed the un-narrowed ends of two polyethylene tubes respectively (0.5 mm of the thread was restrained by one of the segment to fix the thread). The cannula was filled with a heparin solution in normal saline (50 IU/kg) through the tip end by using an injector and was ready for use. 200-220 g male SD rats were anesthetized with 20% urethane solution (6 mL/kg, ip). Anesthetized rats were fixed in a supine position, and the left external jugular vein was separated and penetrated with a suture at the proximal and distal ends respectively, and the distal end was ligated. An incision was carefully made on the exposed left external jugular vein, and the tip end without thread-restraining of the bypass cannula prepared as described above was inserted into the proximal end of the open incision in the left external jugular vein. A precise amount of heparin in normal saline (50 IU/kg) was injected through the tip at the other end by using an injector. Then, the injector was replaced, and precise amount of drug was injected by the same way. At this moment, without removing the injector from the ethylene tube, the right common carotid artery was separated, and the proximal end was clipped by an artery clip. The right common carotid artery was penetrated with a suture at the proximal and distal ends respectively, and the distal end was ligated. An incision was carefully cut across the right common carotid artery near the artery clip. The injector was pulled out of the polyethylene tube through the tip, and the tip of the polyethylene tube was then inserted into the proximal end of the artery incision. Both ends of the bypass cannula were fixed to the artery or vein with #4 sutures. The artery clip was then removed to allow blood to flow from the artery to the vein through the bypass cannula. A rat arteriovenous bypass thrombolysis model was thus established. The process was timed from the beginning of circulation, the thread attached with thrombus was taken out from the bypass cannula after 15 minutes and accurately weighed. The difference in the mass of the thread before and after was determined as the wet weight of the thrombus, which was statistically analyzed and used to evaluate the in vivo antithrombotic activities of the compounds. The wet weight of the thrombus was expressed as average value and standard deviation (x±SD). The drug administration method is intravenous injection. The blank control was normal saline solution, and the dose was 1 mL/kg. The positive control was aspirin, and the dose was 9 mg/kg. The dose of compounds 5Aa-p of the present invention was 0.1 nmol/kg. The method was the same as in example 3. The drug administration method is intravenous injection. The blank control was normal saline solution, and the dose was 3 mL/kg. The positive control was aspirin, and the dose was 9 mg/kg.

[2] = tested on: thrombus (rat arteriovenous bypass thrombolysis model); test: Thrombolytic activity via intravenous administration, rat arteriovenous bypass thrombolysis model; type: in vivo, male SD rats; conditions: n = 10
Protocol: 200-220 g male SD rats were anesthetized with 20% urethane solution (6 mL/kg, ip). Anesthetized rats were fixed in a supine position, and the right common carotid artery was separated, clamped at the proximal end with an arterial clip, and penetrated with a suture at the proximal and distal ends, respectively. The suture at the distal end is clipped tightly by a hemostatic clamp at the skin/fur. Cannulation was performed at the distal end, the arterial clamp was loosened, and about 1 ml arterial blood was discharged into a 1 mL EP vial. 0.1 mL rat arterial blood was injected into a vertically fixed glass tube (15 mm in length, with an inner diameter of 2.5 mm and an outer diameter of 5.0 mm, sealed with a rubber stopper at the bottom), into which was immediately inserted a thrombus immobilization screw made of stainless steel. […] 40 min after the blood coagulated, the rubber stopper at the bottom of the glass tube was removed, the stem of the thrombus immobilization screw was fixed by forceps, and the thrombus-wrapped thrombus immobilization screw was carefully taken out from the glass tube and precisely weighted.
A bypass cannula was composed of 3 segments. The middle segment was a polyethylene tube having a length of 60 mm and an inner diameter of 3.5 mm. The segments on both ends were similar polyethylene tubes having a length of 100 mm, an inner diameter of 1 mm and an outer diameter of 2 mm, one end of which was pulled to form a tip, with an outer diameter of 1.0 mm (used in inserting into the rat carotid artery or vein), the other end of which was sheathed by a polyethylene tube having a length of 7 mm and an outer diameter of 3.5 mm (thickened, used in inserting into the polyethylene tube of the middle segment). The inner wall of the 3-segment cannula was entirely silylated. The thrombus-wrapped thrombus immobilization screw was placed into the polyethylene tube of the middle segment, and both ends of the tube sheath the thickened ends of two polyethylene tubes. The cannula was filled with a heparin solution in normal saline (50 IU/kg) through the tip end by using an injector and was ready for use.
The left external jugular vein of the rat was separated and penetrated with a suture at the proximal and distal ends respectively, and the distal end was ligated. An incision was carefully made on the exposed left external jugular vein, and the tip of the bypass cannula prepared as described above was inserted into the proximal end of the incision in the left external jugular vein, away from the stem of the thrombus immobilization screw in the middle segment of the bypass cannula (which accommodated the accurately weighed thrombus immobilization screw). A precise amount of heparin in saline (50 IU/kg) was injected through the tip at the other end by using an injector. At this moment, without removing the injector from the polyethylene tube, the tube between the injector and the polyethylene tube was clamped with a hemostatic clamp. The blood flow was stopped by clamping the proximal end of the right common carotid artery with an arterial clip, and an incision was cut carefully across the common carotid artery near the clip. The injector was pulled out of the polyethylene tube through the tip, and the tip of the polyethylene tube was then inserted into the proximal end of the artery incision. Both ends of the bypass cannula were fixed to the artery or vein with #4 sutures.
A scalp needle was used to pass saline solution, a urokinase in saline solution or varied concentrations of the compounds in saline solution through the middle section of the bypass cannula (which accommodated the accurately weighed thrombus immobilization screw) to a position at the proximal vein and away from the thrombus immobilization screw. The artery clip was then removed to allow blood to flow from the artery to the vein through the bypass cannula. A rat arteriovenous bypass thrombolysis model was thus established. […]

stroke rats = test: Therapeutic effect in stroke rats (microthrombus injected into the brain, treated at once): Zealonga score and TTC infarction volume; type: in vivo, SD male rats; conditions: for Neural function scores: Zealonga method, 24 hours after awake, n = 9; for Percentage of infarction volume: cerebral infarction, TTC, n = 7
Protocol: SD male rats (280-300 g) were randomly divided to UK positive control group at a dose of 20000 IU/kg, blank control group with normal saline solution, compound control group with PAK at a dose of 5 μmol/kg, and compound 5Ak group at a dose of 1 μmol/kg (high), 0.1 μmol/kg (medium), and 0.01 μmol/kg (low). A 10% chloral hydrate solution (400 mg/kg) was injected intraperitoneally into rats for anesthesia. […] The 10 μl blood drawn was placed in a 1 mL EP vial and kept at RT for 30 min to allow the coagulation of blood and then transferred into a −20° C. refrigerator for 1 hour to allow the formation of solid coagulation. 1 hour later, the blood clots were taken out, 1 mL normal saline was added therein, and then the blood clots were broken into relatively uniform microthrombus by a steel spatula. The microthrombus suspension was then transferred into a 1 mL injector for use. […] The common jugular vein was separated, and then injected with UK at the dose of 20000 IU/kg, normal saline solution, or compound 5Ak at the dose of 1 μmol/kg. The vein was ligated. 3 drops of penicillin was dropped on the wound. The wound was sewed, and animals were waited for awake.
24 hours after the rats were awake, the degree of damage in neural function was evaluated by the Zealonga method. […] The evaluation results were statistically analyzed and subjected to t-test.
After the rats were awake for 24 hours and assessed for their degree of damage in neural function by Zealonga method, they were anesthetized with urethane followed by immediate decapitation and removal of the brain. Brain tissues were kept in a −20° C. refrigerator for 2 hours, and coronal sections of about 2 mm were successively sliced from the prefrontal end for a total of 5 sections and then placed into a 2% TTC solution to incubate without light at 37° C. for 30 min. The color change in brain sections was observed: normal brain tissues were stained red by TTC, while ischemic brain tissues appeared in white. Photographs were taken by using a digital camera and processed with image statistics software, and the volume of infarction in brain tissues and the area of normal brain tissues in the coronal sections were calculated. The ratio of the cerebral infarction volume of each group was statistically calculated and subject to t-test.

[3] = Table 1, control groups 6, PAK, 6 + PAK, dose not given

Compound: CC(=O)Oc1ccccc1C(=O)O [Aspirin, aspirin, reference compound]
- wet weight of thrombus ([1]; Table 3, Aspirin 9 mg/kg): 46.95 ± 5.21^a mg
- wet weight of thrombus ([1]; Table 4, Aspirin 9 mg/kg): 45.62 ± 2.60 mg

Compound: Pro-Ala-Lys [PAK, reference compound]
- Weight reduction in thrombus [2, 3]: 14.17 ± 1.84^a mg
- Neural function scores (stroke rats; PAK 5 μmol/kg): 2.20 ± 1.60
- Percentage of infarction volume (stroke rats; PAK 5 μmol/kg): 18.36 ± 7.38%

Compound: urokinase [reference compound]
- Weight reduction in thrombus ([2]; Table 1, urokinase 20000 U/kg (1.68 mg/kg) i.v.): 18.95 ± 2.73^a mg
- Weight reduction in thrombus ([2]; Table 2, Urokinase 20000 U/kg i.v.): 25.61 ± 3.87 mg
- Neural function scores (stroke rats; urokinase 20000 IU/kg): 1.30 ± 0.95^a
- Percentage of infarction volume (stroke rats; urokinase 20000 IU/kg): 4.60 ± 2.09%

Compound: CC1(C)N[C@H](C(=O)N[C@@H](CCCCN)C(=O)O)Cc2cc(O)c(O)cc21 [Compound 6, 3S-6,7-dihydroxy-1,1-dimethyl-1,2,3,4-tetrahydro-isoquinoline-3-acyl-Lys, reference compound]
- Weight reduction in thrombus [2, 3]: 13.87 ± 3.07^a mg
